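96-well plates; 48 h exposure; 5 concentrations. Endpoints by linear interpolation between flanking doses. Not reached: highest tested concentration assigned. GI50 = concentration required for 50% inhibition of growth.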 Calls of active or inactive are those of the source. Cut-off read from the data, not from the text of the source: active = GI50 up to about 1.1 µM and inactive = higher.
Legend:
Test in all cases: growth of human tumour cells (NCI), 48 h
NCI-H226 = system: NCI-H226
NCI-H460 = system: NCI-H460
PC-3 = system: PC-3
U-251 = system: U-251
CCRF-CEM = system: CCRF-CEM
M14 = system: M14
BT-549 = system: BT-549
RPMI-8226 = system: RPMI-8226
Malme-3M = system: Malme-3M
SR = system: SR
SF-539 = system: SF-539
UACC-62 = system: UACC-62
HCT-15 = system: HCT-15
A498 = system: A498
OVCAR-5 = system: OVCAR-5
SF-295 = system: SF-295
HCT-116 = system: HCT-116
RXF 393 = system: RXF 393
HL-60 = system: HL-60
COLO 205 = system: COLO 205
HOP-92 = system: HOP-92
NCI/ADR-RES = system: NCI/ADR-RES
MDA-N = system: MDA-N
LOX IMVI = system: LOX IMVI
SK-MEL-5 = system: SK-MEL-5
DU-145 = system: DU-145
SF-268 = system: SF-268
SNB-75 = system: SNB-75
HOP-62 = system: HOP-62
MDA-MB-435 = system: MDA-MB-435
ACHN = system: ACHN
SK-OV-3 = system: SK-OV-3
A549 = system: A549
EKVX = system: EKVX
UACC-257 = system: UACC-257
K562 = system: K562
SW-620 = system: SW-620
OVCAR-3 = system: OVCAR-3
HT-29 = system: HT-29
SK-MEL-28 = system: SK-MEL-28
HCC 2998 = system: HCC 2998
MOLT-4 = system: MOLT-4
SNB-19 = system: SNB-19
SK-MEL-2 = system: SK-MEL-2
IGROV-1 = system: IGROV-1
TK-10 = system: TK-10
NCI-H23 = system: NCI-H23
SN12C = system: SN12C
Hs-578T = system: Hs-578T
NCI-H522 = system: NCI-H522
OVCAR-8 = system: OVCAR-8
T47D = system: T47D
MDA-MB-231 = system: MDA-MB-231
786-0 = system: 786-0
CAKI-1 = system: CAKI-1
KM12 = system: KM12
OVCAR-4 = system: OVCAR-4
MCF7 = system: MCF7
UO-31 = system: UO-31

With `C=C1C(=O)OC2CC3(CO3)C3C(O)C(O)CC3(C)CC12` (centres undefined) the GI50 (NCI-H226) was > 100 µM (inactive), the GI50 (NCI-H460) was 34.9 µM (inactive) and the GI50 (PC-3) was 45.8 µM (inactive). For the same compound, the GI50 (U-251) was 43 µM (inactive), the GI50 (CCRF-CEM) was 15.2 µM (inactive) and the GI50 (M14) was 16.4 µM (inactive). For the same compound, the GI50 (BT-549) was 18.1 µM (inactive), the GI50 (RPMI-8226) was 30.9 µM (inactive) and the GI50 (Malme-3M) was 18.2 µM (inactive). The GI50 (SR) was 20.8 µM (inactive), the GI50 (SF-539) was 19.1 µM (inactive) and the GI50 (UACC-62) was 16.6 µM (inactive). For the same compound, the GI50 (HCT-15) was 17 µM, the GI50 (A498) was 28.4 µM (inactive) and the GI50 (OVCAR-5) was 27.7 µM (inactive). The GI50 (SF-295) was > 100 µM (inactive), the GI50 (HCT-116) was 18.2 µM (inactive) and the GI50 (RXF 393) was 16.7 µM (inactive). For the same compound, the GI50 (HL-60) was 12.7 µM (inactive), the GI50 (COLO 205) was 29.9 µM (inactive) and the GI50 (HOP-92) was 27.6 µM (inactive). For the same compound, the GI50 (NCI/ADR-RES) was 38.8 µM (inactive), the GI50 (MDA-N) was 23.4 µM (inactive) and the GI50 (LOX IMVI) was 8.24 µM (inactive). For the same compound, the GI50 (SK-MEL-5) was 19 µM (inactive), the GI50 (DU-145) was 34.4 µM (inactive) and the GI50 (SF-268) was 40.3 µM (inactive). The GI50 (SNB-75) was 49.8 µM (inactive), the GI50 (HOP-62) was 61.9 µM (inactive) and the GI50 (MDA-MB-435) was 25.4 µM (inactive). The GI50 (ACHN) was 19.7 µM (inactive), the GI50 (SK-OV-3) was > 100 µM (inactive) and the GI50 (A549) was 40.9 µM (inactive). For the same compound, the GI50 (EKVX) was 18.3 µM (inactive), the GI50 (UACC-257) was 39.2 µM (inactive) and the GI50 (K562) was 27.5 µM (inactive). The GI50 (SW-620) was 16.6 µM (inactive), the GI50 (OVCAR-3) was 21.9 µM (inactive) and the GI50 (HT-29) was 30.5 µM (inactive). The GI50 (SK-MEL-28) was 17.4 µM (inactive), the GI50 (HCC 2998) was 17.3 µM (inactive) and the GI50 (MOLT-4) was 17.8 µM (inactive). For the same compound, the GI50 (SNB-19) was > 100 µM (inactive), the GI50 (SK-MEL-2) was 16 µM (inactive) and the GI50 (IGROV-1) was 35.6 µM (inactive). For the same compound, the GI50 (TK-10) was 35.6 µM (inactive), the GI50 (NCI-H23) was 22.3 µM (inactive) and the GI50 (SN12C) was 24.4 µM (inactive). The GI50 (Hs-578T) was 81.3 µM (inactive), the GI50 (NCI-H522) was 12.3 µM (inactive) and the GI50 (OVCAR-8) was 22.3 µM (inactive). The GI50 (T47D) was 30.9 µM (inactive), the GI50 (MDA-MB-231) was 28.6 µM (inactive) and the GI50 (786-0) was 76.9 µM (inactive). The GI50 (CAKI-1) was 20.3 µM (inactive), the GI50 (KM12) was 32.9 µM (inactive) and the GI50 (OVCAR-4) was 76.6 µM (inactive). For the same compound, the GI50 (MCF7) was 21 µM (inactive).
`COc1ccc2c(c1)C(=O)c1ccccc1C2` was tested, and the GI50 (NCI-H226) was > 100 µM (inactive), the GI50 (NCI-H460) was 61.8 µM (inactive) and the GI50 (PC-3) was 29.2 µM (inactive). For the same compound, the GI50 (U-251) was 45.2 µM (inactive), the GI50 (CCRF-CEM) was 25.1 µM (inactive) and the GI50 (M14) was 93.8 µM (inactive). For the same compound, the GI50 (BT-549) was 64.1 µM (inactive), the GI50 (RPMI-8226) was 46.8 µM (inactive) and the GI50 (SR) was 46.7 µM (inactive). For the same compound, the GI50 (SF-539) was 61.1 µM (inactive), the GI50 (UACC-62) was 51.8 µM (inactive) and the GI50 (HCT-15) was 60.7 µM. The GI50 (A498) was 29.7 µM (inactive), the GI50 (OVCAR-5) was > 100 µM (inactive) and the GI50 (SF-295) was 36.5 µM (inactive). The GI50 (HCT-116) was 36 µM (inactive), the GI50 (RXF 393) was 13.5 µM (inactive) and the GI50 (HL-60) was 16.3 µM (inactive). For the same compound, the GI50 (COLO 205) was 54.5 µM (inactive), the GI50 (HOP-92) was 64 µM (inactive) and the GI50 (NCI/ADR-RES) was 59.6 µM (inactive). For the same compound, the GI50 (MDA-N) was > 100 µM (inactive), the GI50 (LOX IMVI) was 49.9 µM (inactive) and the GI50 (SK-MEL-5) was 49.9 µM (inactive). For the same compound, the GI50 (DU-145) was 17.1 µM (inactive), the GI50 (SF-268) was 70.5 µM (inactive) and the GI50 (SNB-75) was 26.5 µM (inactive). For the same compound, the GI50 (HOP-62) was 50.6 µM (inactive), the GI50 (MDA-MB-435) was 41.7 µM (inactive) and the GI50 (ACHN) was > 100 µM (inactive). For the same compound, the GI50 (SK-OV-3) was 33.5 µM (inactive), the GI50 (A549) was 86.7 µM (inactive) and the GI50 (EKVX) was 39.6 µM (inactive). The GI50 (UACC-257) was 33.8 µM (inactive), the GI50 (K562) was 40.3 µM (inactive) and the GI50 (SW-620) was 71.4 µM (inactive). For the same compound, the GI50 (OVCAR-3) was 82.2 µM (inactive), the GI50 (HT-29) was 58.6 µM (inactive) and the GI50 (SK-MEL-28) was > 100 µM (inactive). The GI50 (HCC 2998) was 70.8 µM (inactive), the GI50 (UO-31) was > 100 µM (inactive) and the GI50 (MOLT-4) was 28.6 µM (inactive). For the same compound, the GI50 (SNB-19) was > 100 µM (inactive), the GI50 (SK-MEL-2) was 48.3 µM (inactive) and the GI50 (IGROV-1) was 38.8 µM (inactive). For the same compound, the GI50 (TK-10) was 48.1 µM (inactive), the GI50 (NCI-H23) was 96.4 µM (inactive) and the GI50 (SN12C) was > 100 µM (inactive). The GI50 (Hs-578T) was 44.4 µM (inactive), the GI50 (NCI-H522) was 47.4 µM (inactive) and the GI50 (OVCAR-8) was > 100 µM (inactive). For the same compound, the GI50 (T47D) was 19.7 µM (inactive), the GI50 (MDA-MB-231) was 18.9 µM (inactive) and the GI50 (786-0) was 73.8 µM (inactive). The GI50 (CAKI-1) was 79.6 µM (inactive), the GI50 (KM12) was 63 µM (inactive) and the GI50 (OVCAR-4) was 42.7 µM (inactive). The GI50 (MCF7) was 64 µM (inactive).
With `C[N+]1=C2[B-](C(C)(C)C)=[N+](C(C)(C)C)[B-]2(C(C)(C)C)[N+](C)=C2[B-](C(C)(C)C)=[N+](C(C)(C)C)[B-]21C(C)(C)C` (centres undefined) the GI50 (NCI-H226) was > 100 µM (inactive), the GI50 (NCI-H460) was > 100 µM (inactive) and the GI50 (PC-3) was > 100 µM (inactive). The GI50 (U-251) was > 100 µM (inactive), the GI50 (CCRF-CEM) was > 100 µM (inactive) and the GI50 (M14) was > 100 µM (inactive). The GI50 (BT-549) was > 100 µM (inactive), the GI50 (RPMI-8226) was > 100 µM (inactive) and the GI50 (Malme-3M) was > 100 µM (inactive). The GI50 (SR) was > 100 µM (inactive), the GI50 (UACC-62) was > 100 µM (inactive) and the GI50 (HCT-15) was > 100 µM. For the same compound, the GI50 (A498) was > 100 µM (inactive), the GI50 (OVCAR-5) was > 100 µM (inactive) and the GI50 (SF-295) was 61.9 µM (inactive). For the same compound, the GI50 (HCT-116) was > 100 µM (inactive), the GI50 (RXF 393) was > 100 µM (inactive) and the GI50 (HL-60) was > 100 µM (inactive). The GI50 (COLO 205) was > 100 µM (inactive), the GI50 (HOP-92) was > 100 µM (inactive) and the GI50 (NCI/ADR-RES) was > 100 µM (inactive). For the same compound, the GI50 (MDA-N) was > 100 µM (inactive), the GI50 (LOX IMVI) was > 100 µM (inactive) and the GI50 (SK-MEL-5) was > 100 µM (inactive). For the same compound, the GI50 (DU-145) was > 100 µM (inactive), the GI50 (SF-268) was > 100 µM (inactive) and the GI50 (SNB-75) was > 100 µM (inactive). The GI50 (HOP-62) was > 100 µM (inactive), the GI50 (MDA-MB-435) was > 100 µM (inactive) and the GI50 (ACHN) was > 100 µM (inactive). For the same compound, the GI50 (SK-OV-3) was > 100 µM (inactive), the GI50 (A549) was > 100 µM (inactive) and the GI50 (EKVX) was > 100 µM (inactive). The GI50 (UACC-257) was > 100 µM (inactive), the GI50 (K562) was > 100 µM (inactive) and the GI50 (SW-620) was > 100 µM (inactive). The GI50 (OVCAR-3) was > 100 µM (inactive), the GI50 (HT-29) was > 100 µM (inactive) and the GI50 (SK-MEL-28) was > 100 µM (inactive). For the same compound, the GI50 (HCC 2998) was > 100 µM (inactive), the GI50 (UO-31) was > 100 µM (inactive) and the GI50 (MOLT-4) was > 100 µM (inactive). For the same compound, the GI50 (SNB-19) was > 100 µM (inactive), the GI50 (SK-MEL-2) was > 100 µM (inactive) and the GI50 (IGROV-1) was > 100 µM (inactive). The GI50 (TK-10) was > 100 µM (inactive), the GI50 (NCI-H23) was > 100 µM (inactive) and the GI50 (SN12C) was > 100 µM (inactive). For the same compound, the GI50 (Hs-578T) was > 100 µM (inactive), the GI50 (NCI-H522) was > 100 µM (inactive) and the GI50 (OVCAR-8) was > 100 µM (inactive). For the same compound, the GI50 (T47D) was > 100 µM (inactive), the GI50 (MDA-MB-231) was > 100 µM (inactive) and the GI50 (786-0) was > 100 µM (inactive). For the same compound, the GI50 (CAKI-1) was > 100 µM (inactive), the GI50 (KM12) was > 100 µM (inactive) and the GI50 (OVCAR-4) was > 100 µM (inactive). The GI50 (MCF7) was 59.4 µM (inactive).

— ChEMBL document CHEMBL1201862, “PubChem BioAssay data set” (2004)
